From ChEMBL document CHEMBL5291721, “A preclinical secondary pharmacology resource illuminates target-adverse drug reaction associations of marketed drugs” (Nat Commun, 2023) come the findings set out here.

For test [1], the target named is Sodium-dependent serotonin transporter (Homo sapiens, UniProt P31645).
For test [2], the target named is Muscarinic acetylcholine receptor M3 (Homo sapiens, UniProt P20309).
The target in test [3] is Gamma-aminobutyric acid receptor subunit alpha-1/alpha-2/beta-2/gamma-2 (Homo sapiens, UniProt P14867+P18507+P47869+P47870). The class given is functional, cell-based.
Gamma-aminobutyric acid receptor subunit alpha-1/alpha-2/beta-2/gamma-2, sequence (P14867 whole entry): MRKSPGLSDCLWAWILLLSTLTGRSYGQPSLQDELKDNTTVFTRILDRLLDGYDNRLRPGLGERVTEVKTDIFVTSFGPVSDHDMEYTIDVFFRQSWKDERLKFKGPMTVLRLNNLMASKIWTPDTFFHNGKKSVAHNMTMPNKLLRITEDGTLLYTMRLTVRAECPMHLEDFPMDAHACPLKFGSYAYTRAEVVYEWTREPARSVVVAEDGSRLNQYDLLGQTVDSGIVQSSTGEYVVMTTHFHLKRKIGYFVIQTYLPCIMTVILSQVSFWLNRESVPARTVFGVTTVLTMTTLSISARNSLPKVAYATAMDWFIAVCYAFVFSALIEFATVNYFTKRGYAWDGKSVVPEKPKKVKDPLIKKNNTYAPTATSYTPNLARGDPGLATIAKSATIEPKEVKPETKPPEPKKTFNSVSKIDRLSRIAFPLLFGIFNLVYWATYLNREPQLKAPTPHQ
Gamma-aminobutyric acid receptor subunit alpha-1/alpha-2/beta-2/gamma-2, sequence (P47870 whole entry): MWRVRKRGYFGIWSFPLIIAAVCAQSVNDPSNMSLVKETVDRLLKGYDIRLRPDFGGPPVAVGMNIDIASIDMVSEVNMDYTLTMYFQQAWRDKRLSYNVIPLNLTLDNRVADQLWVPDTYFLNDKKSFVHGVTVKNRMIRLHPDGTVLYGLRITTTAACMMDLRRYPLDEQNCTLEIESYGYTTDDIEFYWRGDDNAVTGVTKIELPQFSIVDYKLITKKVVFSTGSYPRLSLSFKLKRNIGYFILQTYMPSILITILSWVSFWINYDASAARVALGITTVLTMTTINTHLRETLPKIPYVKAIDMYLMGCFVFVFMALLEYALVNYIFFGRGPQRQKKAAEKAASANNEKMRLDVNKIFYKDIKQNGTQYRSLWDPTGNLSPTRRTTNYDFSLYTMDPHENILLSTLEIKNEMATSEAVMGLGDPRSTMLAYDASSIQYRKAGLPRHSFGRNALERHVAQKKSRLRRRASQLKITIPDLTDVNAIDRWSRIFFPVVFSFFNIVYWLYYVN
Gamma-aminobutyric acid receptor subunit alpha-1/alpha-2/beta-2/gamma-2, sequence (P18507 whole entry): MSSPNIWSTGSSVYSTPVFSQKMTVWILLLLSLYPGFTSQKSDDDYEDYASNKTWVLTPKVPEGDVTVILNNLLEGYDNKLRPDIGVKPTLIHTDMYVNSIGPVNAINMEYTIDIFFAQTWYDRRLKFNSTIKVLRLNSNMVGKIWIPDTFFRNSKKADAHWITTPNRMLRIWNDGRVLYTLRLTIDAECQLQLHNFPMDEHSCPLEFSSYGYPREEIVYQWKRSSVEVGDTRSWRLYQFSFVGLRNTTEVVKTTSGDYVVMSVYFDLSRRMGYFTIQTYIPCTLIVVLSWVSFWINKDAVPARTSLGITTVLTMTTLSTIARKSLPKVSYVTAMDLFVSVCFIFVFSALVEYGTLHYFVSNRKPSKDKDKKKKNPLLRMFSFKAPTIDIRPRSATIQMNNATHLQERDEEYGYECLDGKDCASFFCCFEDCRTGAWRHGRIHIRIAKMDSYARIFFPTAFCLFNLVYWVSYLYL
Gamma-aminobutyric acid receptor subunit alpha-1/alpha-2/beta-2/gamma-2, sequence (P47869 whole entry): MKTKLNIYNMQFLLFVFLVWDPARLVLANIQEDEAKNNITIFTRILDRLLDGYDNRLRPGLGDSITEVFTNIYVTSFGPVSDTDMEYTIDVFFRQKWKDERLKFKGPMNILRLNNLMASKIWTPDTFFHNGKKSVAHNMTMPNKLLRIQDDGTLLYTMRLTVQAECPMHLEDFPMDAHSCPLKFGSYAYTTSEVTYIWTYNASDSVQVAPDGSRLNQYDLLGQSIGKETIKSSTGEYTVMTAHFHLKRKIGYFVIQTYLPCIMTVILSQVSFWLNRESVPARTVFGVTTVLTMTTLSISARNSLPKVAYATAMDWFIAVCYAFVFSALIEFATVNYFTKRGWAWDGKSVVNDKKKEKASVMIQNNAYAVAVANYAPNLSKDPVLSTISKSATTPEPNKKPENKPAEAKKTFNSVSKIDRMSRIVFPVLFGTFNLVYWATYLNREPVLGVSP
For test [4], the target named is 5-hydroxytryptamine receptor 2A (Homo sapiens, UniProt P28223). The class given is functional, cell-based.
5-hydroxytryptamine receptor 2A, sequence (P28223 whole entry): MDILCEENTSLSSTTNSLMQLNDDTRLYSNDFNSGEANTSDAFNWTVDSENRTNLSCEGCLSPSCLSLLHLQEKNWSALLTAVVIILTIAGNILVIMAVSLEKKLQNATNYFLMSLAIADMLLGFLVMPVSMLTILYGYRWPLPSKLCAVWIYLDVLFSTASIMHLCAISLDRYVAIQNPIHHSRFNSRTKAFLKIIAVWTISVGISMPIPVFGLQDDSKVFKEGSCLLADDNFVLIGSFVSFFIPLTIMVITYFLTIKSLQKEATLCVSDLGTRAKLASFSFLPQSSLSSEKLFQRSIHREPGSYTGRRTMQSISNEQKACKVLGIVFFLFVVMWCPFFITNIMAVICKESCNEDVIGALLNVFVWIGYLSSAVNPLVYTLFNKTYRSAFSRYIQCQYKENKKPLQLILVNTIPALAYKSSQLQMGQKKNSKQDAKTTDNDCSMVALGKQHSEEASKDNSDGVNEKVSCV
Test [5] addresses Beta-2 adrenergic receptor (Homo sapiens, UniProt P07550).
The next test addresses Mu-type opioid receptor (Homo sapiens, UniProt P35372). The test is described as follows: biochemical. It counts as functional.
The target of test [6] is T1, Alpha-1A adrenergic receptor (Homo sapiens, UniProt P35348).
T1 sequence (P35348 whole entry): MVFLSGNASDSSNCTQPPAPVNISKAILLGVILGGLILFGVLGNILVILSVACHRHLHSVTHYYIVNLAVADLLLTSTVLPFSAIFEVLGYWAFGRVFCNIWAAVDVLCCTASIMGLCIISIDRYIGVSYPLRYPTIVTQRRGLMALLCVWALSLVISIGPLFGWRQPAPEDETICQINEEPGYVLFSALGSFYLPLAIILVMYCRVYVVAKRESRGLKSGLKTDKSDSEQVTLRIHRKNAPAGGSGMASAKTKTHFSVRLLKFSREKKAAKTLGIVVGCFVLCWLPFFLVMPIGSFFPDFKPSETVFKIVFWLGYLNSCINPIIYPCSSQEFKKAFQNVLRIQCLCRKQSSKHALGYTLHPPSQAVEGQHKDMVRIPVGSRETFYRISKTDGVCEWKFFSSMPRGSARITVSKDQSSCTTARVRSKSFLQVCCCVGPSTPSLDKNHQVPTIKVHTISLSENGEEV

In a further test the target is Glucagon receptor (Homo sapiens, UniProt P47871).
Glucagon receptor, sequence (P47871 whole entry): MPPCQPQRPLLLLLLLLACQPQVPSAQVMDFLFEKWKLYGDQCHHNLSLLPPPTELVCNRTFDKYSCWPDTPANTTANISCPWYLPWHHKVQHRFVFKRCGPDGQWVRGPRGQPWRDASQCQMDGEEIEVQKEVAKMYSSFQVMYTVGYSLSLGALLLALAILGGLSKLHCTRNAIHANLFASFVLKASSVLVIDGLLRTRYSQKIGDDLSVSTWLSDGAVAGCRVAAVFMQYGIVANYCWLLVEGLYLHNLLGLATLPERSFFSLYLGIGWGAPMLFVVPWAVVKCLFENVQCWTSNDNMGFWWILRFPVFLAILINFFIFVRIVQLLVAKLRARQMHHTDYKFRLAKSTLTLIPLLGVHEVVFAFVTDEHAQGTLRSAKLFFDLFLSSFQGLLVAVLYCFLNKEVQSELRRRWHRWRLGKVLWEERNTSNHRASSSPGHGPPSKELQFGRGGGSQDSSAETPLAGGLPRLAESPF
Test [7] deals with T2, Corticotropin-releasing factor receptor 1 (Homo sapiens, UniProt P34998).
T2 sequence (P34998 whole entry): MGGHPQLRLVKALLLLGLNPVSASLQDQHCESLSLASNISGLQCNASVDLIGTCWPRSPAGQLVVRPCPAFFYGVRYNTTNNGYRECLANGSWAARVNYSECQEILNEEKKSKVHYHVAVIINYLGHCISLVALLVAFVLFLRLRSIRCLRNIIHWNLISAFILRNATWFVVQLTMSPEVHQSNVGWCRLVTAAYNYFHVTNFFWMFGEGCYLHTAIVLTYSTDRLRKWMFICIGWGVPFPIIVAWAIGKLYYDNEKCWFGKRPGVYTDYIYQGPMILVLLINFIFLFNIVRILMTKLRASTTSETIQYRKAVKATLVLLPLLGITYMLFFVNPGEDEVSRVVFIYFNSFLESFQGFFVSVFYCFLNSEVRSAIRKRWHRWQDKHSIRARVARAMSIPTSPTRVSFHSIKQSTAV

In test [8] the target is T3, Neuropeptide Y receptor type 2 (Homo sapiens, UniProt P49146).
T3 sequence (P49146 whole entry): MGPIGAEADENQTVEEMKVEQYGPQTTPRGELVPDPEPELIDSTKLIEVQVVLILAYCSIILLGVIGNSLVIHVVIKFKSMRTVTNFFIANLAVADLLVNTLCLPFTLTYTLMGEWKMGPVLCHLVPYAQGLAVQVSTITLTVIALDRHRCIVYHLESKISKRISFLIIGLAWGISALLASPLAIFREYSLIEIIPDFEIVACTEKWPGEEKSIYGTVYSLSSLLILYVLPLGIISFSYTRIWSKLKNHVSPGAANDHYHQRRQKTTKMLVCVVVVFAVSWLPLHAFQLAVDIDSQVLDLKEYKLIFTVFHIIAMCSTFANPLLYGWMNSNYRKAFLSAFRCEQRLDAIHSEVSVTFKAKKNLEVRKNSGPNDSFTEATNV

Test [9] has as its target Neurotensin receptor type 1 (Homo sapiens, UniProt P30989).
Also: assay procedure not described here.

Sodium-dependent serotonin transporter, sequence (P31645 whole entry): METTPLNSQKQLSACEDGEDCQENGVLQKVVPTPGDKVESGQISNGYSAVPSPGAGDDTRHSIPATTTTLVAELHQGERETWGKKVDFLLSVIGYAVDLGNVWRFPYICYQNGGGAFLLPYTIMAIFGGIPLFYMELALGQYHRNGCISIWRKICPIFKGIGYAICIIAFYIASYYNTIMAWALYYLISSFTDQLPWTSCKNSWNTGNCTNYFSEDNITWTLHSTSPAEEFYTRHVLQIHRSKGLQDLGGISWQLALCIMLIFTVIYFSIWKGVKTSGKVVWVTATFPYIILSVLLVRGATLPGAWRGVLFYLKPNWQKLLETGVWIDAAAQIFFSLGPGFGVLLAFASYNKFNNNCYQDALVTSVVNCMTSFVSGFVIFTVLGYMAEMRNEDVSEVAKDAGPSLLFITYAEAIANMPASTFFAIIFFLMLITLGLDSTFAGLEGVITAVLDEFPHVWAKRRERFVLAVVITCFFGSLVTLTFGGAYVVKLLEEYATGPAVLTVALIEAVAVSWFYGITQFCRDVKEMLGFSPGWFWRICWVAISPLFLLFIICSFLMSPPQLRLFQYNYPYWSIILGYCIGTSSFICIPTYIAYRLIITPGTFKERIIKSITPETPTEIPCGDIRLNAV
Beta-2 adrenergic receptor, sequence (P07550 whole entry): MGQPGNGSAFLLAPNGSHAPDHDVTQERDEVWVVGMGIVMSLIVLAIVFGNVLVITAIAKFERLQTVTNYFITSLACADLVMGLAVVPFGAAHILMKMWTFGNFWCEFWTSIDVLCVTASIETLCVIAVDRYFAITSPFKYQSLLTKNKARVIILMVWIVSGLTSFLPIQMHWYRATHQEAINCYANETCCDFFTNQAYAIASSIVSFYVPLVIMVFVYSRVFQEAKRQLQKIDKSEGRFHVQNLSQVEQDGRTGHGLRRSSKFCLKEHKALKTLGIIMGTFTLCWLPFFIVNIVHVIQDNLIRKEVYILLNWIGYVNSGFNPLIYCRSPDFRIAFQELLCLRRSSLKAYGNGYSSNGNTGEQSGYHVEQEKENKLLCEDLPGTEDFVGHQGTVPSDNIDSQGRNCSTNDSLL
Mu-type opioid receptor, sequence (P35372 whole entry): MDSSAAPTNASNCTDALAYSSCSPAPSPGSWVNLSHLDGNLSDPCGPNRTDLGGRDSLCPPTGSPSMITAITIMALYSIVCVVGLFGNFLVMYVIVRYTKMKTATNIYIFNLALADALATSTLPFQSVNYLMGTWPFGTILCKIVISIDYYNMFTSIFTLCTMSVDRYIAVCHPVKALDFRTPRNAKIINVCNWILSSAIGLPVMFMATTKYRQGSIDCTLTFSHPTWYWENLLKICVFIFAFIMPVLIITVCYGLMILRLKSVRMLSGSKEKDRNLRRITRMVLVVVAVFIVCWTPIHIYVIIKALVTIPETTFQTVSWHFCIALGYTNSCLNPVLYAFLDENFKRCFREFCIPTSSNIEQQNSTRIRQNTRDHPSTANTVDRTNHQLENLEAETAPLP
Muscarinic acetylcholine receptor M3, sequence (P20309 whole entry): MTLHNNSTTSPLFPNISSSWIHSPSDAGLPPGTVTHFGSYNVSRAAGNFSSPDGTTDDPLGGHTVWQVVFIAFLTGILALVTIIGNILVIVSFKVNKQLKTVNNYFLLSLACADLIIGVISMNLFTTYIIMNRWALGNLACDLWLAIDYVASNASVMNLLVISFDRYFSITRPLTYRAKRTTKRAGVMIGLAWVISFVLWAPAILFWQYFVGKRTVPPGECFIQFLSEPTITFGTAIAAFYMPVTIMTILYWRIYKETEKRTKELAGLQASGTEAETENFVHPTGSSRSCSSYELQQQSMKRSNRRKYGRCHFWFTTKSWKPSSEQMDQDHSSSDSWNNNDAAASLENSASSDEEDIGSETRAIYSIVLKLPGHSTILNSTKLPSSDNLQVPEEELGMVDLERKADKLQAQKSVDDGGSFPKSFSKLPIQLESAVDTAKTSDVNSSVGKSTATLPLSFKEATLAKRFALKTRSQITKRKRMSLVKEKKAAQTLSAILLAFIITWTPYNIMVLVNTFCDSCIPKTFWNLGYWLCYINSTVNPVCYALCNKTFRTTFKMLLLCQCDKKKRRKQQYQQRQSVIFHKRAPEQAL

In general, AC50 refers to the midpoint of the concentration-response curve, whichever way the signal moves. A low value points to greater potency. As for `CC(=N)N1CC[C@H](SC2=C(C(=O)O)N3C(=O)[C@H]([C@@H](C)O)[C@H]3C2)C1`, the AC50 in test [1] was 37 µM; in test [2], 290 µM; in test [3] it was > 800 µM; in [4], > 300 µM.
Regarding `CC(/C=C1\SC(=S)N(CC(=O)O)C1=O)=C\c1ccccc1`, the AC50 (in test [5]; on Mu-type opioid receptor) was > 30 µM throughout.
With `O=C1CN2Cc3c(ccc(Cl)c3Cl)N=C2N1` [ANAGRELIDE], the AC50 is > 30 µM in [1]; > 10 µM in test [5]; > 10 µM in test [2]; > 10 µM in test [6]; > 30 µM in test [4].
`CNCC[C@@H](Oc1ccccc1C)c1ccccc1` [ATOMOXETINE]: the values for the AC50 (in test [2]; on Mu-type opioid receptor) were > 30 µM and 18 µM, respectively.
For the molecule `CCc1oc2ccccc2c1C(=O)c1cc(Br)c(O)c(Br)c1` [BENZBROMARONE], the half-maximal activity concentration (AC50) was > 30 µM in test [5], > 10 µM in test [6] and > 30 µM in [3].
Regarding `C=C(C)[C@@H]1CCC(C)=C[C@H]1c1c(O)cc(CCCCC)cc1O` [CANNABIDIOL], the half-maximal activity concentration (AC50) in test [1], in test [2] and in [4] was > 30 µM in each case.
As to `CO/N=C(\C(=O)N[C@@H]1C(=O)N2C(C(=O)O)=C(COC(N)=O)CS[C@H]12)c1ccco1` [CEFUROXIME], the AC50 (in [1]; in test [2]; at Mu-type opioid receptor; in test [3]; in [4]) was > 30 µM throughout.
For the molecule `[H]/N=C(\N/C(=N/[H])NCCCCCCNC(=N)NC(=N)Nc1ccc(Cl)cc1)Nc1ccc(Cl)cc1` [CHLORHEXIDINE], the half-maximal activity concentration (AC50) in test [1] is 1 µM; in test [5], 6.5 µM; in test [2], 7.8 µM; at Mu-type opioid receptor, > 10 µM; in test [6] it was 0.607 µM; in test [4], > 10 µM.
Turning to `CNCC[C@H](Oc1cccc2ccccc12)c1cccs1` [DULOXETINE], the concentration at half-maximal activity (AC50) in test [2] is > 30 µM.
Take `C#Cc1cccc(Nc2ncnc3cc(OCCOC)c(OCCOC)cc23)c1` [ERLOTINIB]: the AC50 in test [2] and in test [3] was > 30 µM in each case.
Consider `CC1(C)O[C@@H]2C[C@H]3[C@@H]4C[C@H](F)C5=CC(=O)C=C[C@]5(C)[C@H]4[C@@H](O)C[C@]3(C)[C@]2(C(=O)CO)O1` [FLUNISOLIDE], for which, in [3], the half-maximal activity concentration (AC50) is > 30 µM.
With `CCC(=O)O[C@@H](O[P@](=O)(CCCCc1ccccc1)CC(=O)N1C[C@H](C2CCCCC2)C[C@H]1C(=O)O)C(C)C` [FOSINOPRIL], the AC50 (in test [2]; at Mu-type opioid receptor; in test [3]; in test [4]) was > 30 µM in each case.
Turning to `Nc1nc(O)c2ncn(COC(CO)CO)c2n1` [GANCICLOVIR], the AC50 (in test [5]; at Mu-type opioid receptor) was > 30 µM in each case.
Take `C[C@H]1Oc2cc(cnc2N)-c2c(nn(C)c2C#N)CN(C)C(=O)c2ccc(F)cc21` [LORLATINIB]: the AC50 in test [1], in test [2], in [3] and in test [4] was > 30 µM each time.
Regarding `CC(=O)/N=c1/sc(S(N)(=O)=O)nn1C` [METHAZOLAMIDE], the AC50 in [1] is > 10 µM; in test [5], > 10 µM; in [2], > 30 µM; on Mu-type opioid receptor, > 30 µM; in test [6], > 10 µM; in [4], > 10 µM.
With `CC[C@@H](CO)NC(=O)[C@@H]1C=C2c3cccc4[nH]cc(c34)C[C@H]2N(C)C1` [METHYLERGONOVINE], the AC50 at Mu-type opioid receptor was > 30 µM; in test [6] it was 12 µM.
Turning to `CC(=O)Oc1ccccc1C(=O)Nc1ncc([N+](=O)[O-])s1` [NITAZOXANIDE], the AC50 is 6.3 µM in test [1]; 7.8 µM in test [5]; 13 µM in test [2]; > 30 µM at Mu-type opioid receptor; > 30 µM in [4].
In the case of `CNCCC=C1c2ccccc2CCc2ccccc21` [NORTRIPTYLINE], the AC50 is > 30 µM at Mu-type opioid receptor and 0.114 µM in test [6].
Consider `CN(C)c1cc(CNCC(C)(C)C)c(O)c2c1C[C@H]1C[C@H]3[C@H](N(C)C)C(O)=C(C(N)=O)C(=O)[C@@]3(O)C(O)=C1C2=O` [OMADACYCLINE], for which the AC50 in test [1] is 11 µM; in [2] it was > 30 µM; at Mu-type opioid receptor, > 30 µM; in test [3], > 30 µM; in [4], > 30 µM.
Take `COc1ccc(Cc2nccc3cc(OC)c(OC)cc23)cc1OC` [PAPAVERINE]: the AC50 on Mu-type opioid receptor is > 30 µM.
For `CNC(=O)c1cc(Oc2ccc(NC(=O)Nc3ccc(Cl)c(C(F)(F)F)c3)c(F)c2)ccn1` [REGORAFENIB], the AC50 in test [1] and in test [4] was > 30 µM in each case.
For `CCOc1cc(CC(=O)N[C@@H](CC(C)C)c2ccccc2N2CCCCC2)ccc1C(=O)O` [REPAGLINIDE], the AC50 in [1], in [2], in [3] and in test [4] was > 30 µM in each case.
In the case of `NC(=O)c1ncn([C@@H]2O[C@H](CO)[C@@H](O)[C@H]2O)n1` [RIBAVIRIN], the AC50 in test [5] and in test [6] was > 10 µM in each case.
On to `O=C(Nc1c(Cl)cncc1Cl)c1ccc(OC(F)F)c(OCC2CC2)c1` [ROFLUMILAST], for which the AC50 (in test [1]; in test [5]; in test [2]; at Mu-type opioid receptor; in test [4]) was > 30 µM each time.
In the case of `CCCN(CCc1cccs1)[C@H]1CCc2c(O)cccc2C1` [ROTIGOTINE], the AC50 in test [1] is 7.8 µM; in test [2] it was > 30 µM; in [3] it was > 30 µM; in [4] it was 0.46 µM.
Consider `CC[C@H]1OC(=O)[C@H](C)[C@@H](O[C@H]2C[C@@](C)(OC)[C@@H](O)[C@H](C)O2)[C@H](C)[C@@H](O[C@@H]2O[C@H](C)C[C@H](N(C)C)[C@H]2O)[C@](C)(O)C[C@@H](C)/C(=N\OCOCCOC)[C@H](C)[C@@H](O)[C@]1(C)O` [ROXITHROMYCIN], for which the half-maximal activity concentration (AC50) in test [3] was > 30 µM.
As for `CC(C)N(CCCCOCC(=O)NS(C)(=O)=O)c1cnc(-c2ccccc2)c(-c2ccccc2)n1` [SELEXIPAG], the AC50 in [1] was > 30 µM; in test [5], > 30 µM; in [2], > 30 µM; at Mu-type opioid receptor, > 30 µM; in [6] it was > 10 µM; in test [4], > 30 µM.
As to `Cn1c(=O)c2[nH]cnc2n(C)c1=O` [THEOPHYLLINE], the concentration at half-maximal activity (AC50) was > 10 µM in test [5]; > 30 µM at Glucagon receptor; > 30 µM in test [7]; > 30 µM in [8]; > 10 µM in test [6]; > 30 µM in [9].
For the molecule `CN1CCN(CCCN2c3ccccc3Sc3ccc(S(=O)(=O)N(C)C)cc32)CC1` [THIOPROPERAZINE], the concentration at half-maximal activity (AC50) in test [2] is 18 µM; on Mu-type opioid receptor it was > 30 µM; in [3] it was > 30 µM; in [4], > 30 µM.
For `Cc1cc(CC(=O)O)n(C)c1C(=O)c1ccc(Cl)cc1` [ZOMEPIRAC], the half-maximal activity concentration (AC50) (in test [1]; in [2]; on Mu-type opioid receptor; in [4]) was > 30 µM each time.
